Source: patent publication US11813268B2, “Mitofusin activators and uses thereof” (Albert Einstein College of Medicine, priority 2017, dated 2023)
Peptide text beside a SMILES is read from it.

Each compound was assayed against T1, human Mfn2 (Homo sapiens, UniProt O95140) (assay: FRET-based Mfn2 biosensor (wild type) in HEK 293T cells). Settings: WT FRET-based Mfn2 biosensor, 2 h.
T1 construct: expressed in transfected cells; host or cells: HEK 293T
T1 sequence (O95140 1-757): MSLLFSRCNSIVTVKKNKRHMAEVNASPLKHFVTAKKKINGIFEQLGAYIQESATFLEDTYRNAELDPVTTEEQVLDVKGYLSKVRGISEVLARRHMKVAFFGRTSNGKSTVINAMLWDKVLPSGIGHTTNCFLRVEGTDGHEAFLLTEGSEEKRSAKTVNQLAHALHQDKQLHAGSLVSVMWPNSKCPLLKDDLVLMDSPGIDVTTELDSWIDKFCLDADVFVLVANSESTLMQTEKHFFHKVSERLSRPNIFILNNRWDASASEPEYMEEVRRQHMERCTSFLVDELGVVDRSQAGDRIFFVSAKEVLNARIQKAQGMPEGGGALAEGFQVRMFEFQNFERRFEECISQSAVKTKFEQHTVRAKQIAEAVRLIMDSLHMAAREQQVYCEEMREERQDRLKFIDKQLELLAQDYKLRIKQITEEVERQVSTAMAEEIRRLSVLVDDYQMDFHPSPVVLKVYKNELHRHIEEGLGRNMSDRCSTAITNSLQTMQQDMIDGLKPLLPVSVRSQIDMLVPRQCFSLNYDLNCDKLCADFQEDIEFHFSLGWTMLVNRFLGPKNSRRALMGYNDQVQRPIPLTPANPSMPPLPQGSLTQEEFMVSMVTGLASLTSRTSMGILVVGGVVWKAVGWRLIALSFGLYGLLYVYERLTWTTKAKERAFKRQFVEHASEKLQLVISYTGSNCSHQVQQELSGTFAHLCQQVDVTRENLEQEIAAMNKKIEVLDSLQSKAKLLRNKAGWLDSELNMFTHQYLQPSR
Assay type: cell-based
Design: concentration or dose not given beside the values
Description: To generate FRET-based Mfn2 biosensor construct, pcDNA3.1-Flag-Mfn2 (5′Flag epitope cassette onto human Mfn2) was used as backbone, and mCerulean (cyan fluorescent protein; CFP) was fused onto 5′ of Mfn2 and mVenus (yellow fluorescent protein; YFP) onto 3′ of ORF of Mfn2 (20-22). […] Then, the mVenus fragment was fused into pcDNA3.1-Cerulean1-Mfn2 to generate pcDNA3.1-Cerulean1-Mfn2-mVenus with mega-mutagenesis PCR using mVenus fragment as mega primer. PCR conditions: lx 95° C. 10 min; 15×(95° C. 30 sec, […], 68° C. 18 min); 1×72° C. 10 min. The construct was confirmed by sequencing.
Cells were transfected with the total amount of 2.5 μg of DNA per well for the indicated Mfn2 FRET constructs using Lipofectamine® 3000 Reagent (Invitrogen) according to the manufacturer's protocol. The following day, transfected cells were transferred to a pre-coated with poly L-lysine 96-well black plate (2×10^4 cells/well). […] GTPγS (Sigma Aldrich) was used to inhibit GTPase activity of Mfn2. Subsequently, cells were treated for 2 h with MASMs or vehicle (0.1% DMSO). Dilutions of MASMs were performed using a TECAN D300e Digital Dispenser from 10 mM stock solutions. […] Acceptor/Donor ratio referred to the text and figures correspond to the ratio of fluorescence intensities (relative fluorescence units: RFU) detected by the acceptor filter/donor filter. Non-transfected cells were used to subtract background fluorescence from each of the aforementioned filters that were used in the study.
To evaluate the capacity of the selected hits to propel the pro-tethering conformation of Mfn2, a screening assay was developed based on a Forster resonance energy transfer (FRET) biosensor of Mfn2. […] Loss of intra-molecular HR1-HR2 interactions, occurring in the pro-tethering conformation of Mfn2, increase the distance between mCerulean and mVenus and lead to a decrease in the resonance energy that is transferred.
For `O=C(CSCc1ccc(F)cc1)N1CCc2c([nH]c3ccccc23)C1c1ccc(Cl)cc1` (centres unmarked) [MASM11], the “% of FRET reduction” value was 1.97%. With `CC(Sc1nccn1Cc1ccccc1)C(=O)Nc1sc2c(c1C(N)=O)CCC2` (centres unmarked) [MASM37] the “% of FRET reduction” value was 21.0%. For `CC(Sc1nnc(-c2cccs2)n1-c1ccccc1)C(=O)Nc1sc2c(c1C(N)=O)CCC2` (centres unmarked) [MASM36], the “% of FRET reduction” value was 11.1%. With `COc1ccc(SC(C)C(=O)Nc2cc[nH]n2)cc1` (centres unmarked) [MASM18] the “% of FRET reduction” value was −5.8%. In the case of `CC(Sc1nnnn1-c1ccc(O)cc1)C(=O)Nc1sc2c(c1C(N)=O)CCC2` (centres unmarked) [MASM40], the “% of FRET reduction” value is reported as 22.6%. With `CC1CCc2c(sc(NC(=O)CSc3nnc(C4CC4)n3-c3ccccc3)c2C(N)=O)C1` (centres unmarked) [MASM24] the “% of FRET reduction” value was 18.9%. For `CC(Sc1nnc(Cc2ccccc2)n1C)C(=O)Nc1sc2c(c1C(N)=O)CCC2` (centres unmarked) [MASM35], the “% of FRET reduction” value was 25.9%. For `CC(Sc1nnc(-c2ccco2)n1-c1ccccc1)C(=O)Nc1sc2c(c1C(N)=O)CCC2` (centres unmarked) [MASM22], the “% of FRET reduction” value was 31.7%. With `O=C(NCCSCc1ccccc1)C1CCCCO1` (centres unmarked) [MASM16] the “% of FRET reduction” value was −11.2%. With `CCC(C)NC(=O)c1ccccc1NC(=O)C(C)Sc1ccc(C)cc1` (centres unmarked) [MASM14] the “% of FRET reduction” value was −10%. For `Cc1ccc(CSCCNC(=O)C2CCN(c3ccc4nnc(C(F)(F)F)n4n3)CC2)cc1` [MASM3], the “% of FRET reduction” value was −14.1%. For `S=C(NCCSCc1ccco1)NC1CC2CCC1C2` (centres unmarked) [MASM15], the “% of FRET reduction” value was −3.6%. With `Cn1c(SCC(=O)Nc2sc3c(c2C(N)=O)CCCC3)nnc1C1CC1` [MASM44] the “% of FRET reduction” value was 23.3%. With `NC(=O)c1c(NC(=O)CSc2nc(C3CC3)n(-c3ccccc3)n2)sc2c1CCC2` [MASM32] the “% of FRET reduction” value was 37.0%. With `CC(=O)NC12CC3CC(C1)CC(C(=O)NCCSCc1ccc(C)cc1)(C3)C2` [MASM13] the “% of FRET reduction” value was −4.6%. With `CC(/N=N/C(=N)SC1CC(=O)N(c2cccc(C(=O)O)c2)C1=O)c1ccccc1` (centres unmarked) [MASM4] the “% of FRET reduction” value was −8.6%. `NC(=O)c1c(NC(=O)CSc2nnc(C3CC3)n2Cc2ccccc2)sc2c1CCC2` [MASM43] was tested, and the “% of FRET reduction” value was 14.8%. For `CC(Sc1nnc(C2CC2)n1Cc1ccccc1)C(=O)Nc1sc2c(c1C(N)=O)CCC2` (centres unmarked) [MASM25], the “% of FRET reduction” value was 32.2%. `CC(Sc1nnc(-c2ccccc2)n1-c1ccccc1)C(=O)Nc1sc2c(c1C(N)=O)CCC2` (centres unmarked) [MASM20] was tested, and the “% of FRET reduction” value was 10.1%. For `CC(Sc1nnnn1C1CC1)C(=O)Nc1sc2c(c1C(N)=O)CCC2` (centres unmarked) [MASM45], the “% of FRET reduction” value was 26.4%. `CC(Sc1nccn1-c1cccc(F)c1)C(=O)Nc1sc2c(c1C(N)=O)CCC2` (centres unmarked) [MASM41] was tested, and the “% of FRET reduction” value was 10.2%. `Cc1ccccc1-n1c(SCC(=O)Nc2sc3c(c2C(N)=O)CCC3)nnc1-c1ccncc1` [MASM27] was tested, and the “% of FRET reduction” value was 30.0%. In the case of `CC(Sc1nnc2c(Cl)cc(C(F)(F)F)cn12)C(=O)Nc1sc2c(c1C(N)=O)CCC2` (centres unmarked) [MASM34], the “% of FRET reduction” value is reported as 19.4%. For `Cc1ccc(C(=O)C(C)Sc2nnc3c(=O)n(-c4ccc(Br)cc4)ccn23)cc1C` (centres unmarked) [MASM2], the “% of FRET reduction” value was −0.5%. With `CC(Sc1nnc(C2CC2)n1-c1ccccc1)C(=O)NC(N)=O` (centres unmarked) [MASM19] the “% of FRET reduction” value was 2.7%. `NC(=O)c1c(NC(=O)CSc2nnc(C3CC3)n2-c2ccccc2)sc2c1CCC2` [MASM21] was tested, and the “% of FRET reduction” value was 27.1%. In the case of `CC(Sc1nncn1-c1ccccc1)C(=O)Nc1sc2c(c1C(N)=O)CCC2` (centres unmarked) [MASM29], the “% of FRET reduction” value is reported as 16.5%. `CC(Sc1nnc(C2CC2)n1-c1ccccc1)C(=O)Nc1sc2c(c1C#N)CCCCC2` (centres unmarked) [MASM28] was tested, and the “% of FRET reduction” value was 8.0%. With `c1ccc(CSCCc2nc(C3CCOC3)no2)cc1` (centres unmarked) [MASM12] the “% of FRET reduction” value was −4.5%. With `CCn1c(Cc2ccccc2)nnc1SC(C)C(=O)Nc1sc2c(c1C(N)=O)CCC2` (centres unmarked) [MASM38] the “% of FRET reduction” value was 9.9%. In the case of `CC(c1cccc([N+](=O)[O-])c1)N(C)CC(=O)NCCSCc1ccccc1C#N` (centres unmarked) [MASM5], the “% of FRET reduction” value is reported as 0%. With `CC(c1nnc(SCC(=O)Nc2sc3c(c2C(N)=O)CCC3)n1-c1ccc(F)cc1)N(C)C` (centres unmarked) [MASM33] the “% of FRET reduction” value was 31.9%. In the case of `CCC(SC1Cc2cc(OC)c(OC)cc2-c2nc(CCn3nc(C)cc3C)nn21)C(=O)Nc1ccc(F)cc1` (centres unmarked) [MASM6], the “% of FRET reduction” value is reported as −0.7%. In the case of `COc1ccc2c(c1)C1(SCCN1C(=O)c1ccccc1C)C(=O)N2Cc1cccc(C(F)(F)F)c1` (centres unmarked) [MASM9], the “% of FRET reduction” value is reported as 1.1%. For `Cc1cc(NC(=O)C(C)SCC(=O)Nc2ccc(NC(C)c3ccccc3)cc2)no1` (centres unmarked) [MASM1], the “% of FRET reduction” value was −5.3%. For `CC(Sc1nnc(Cc2cccs2)n1C1CC1)C(=O)Nc1sc2c(c1C(N)=O)CCC2` (centres unmarked) [MASM31], the “% of FRET reduction” value was 30.7%. With `CC(C)Cn1c(SC(C)C(=O)Nc2sc3c(c2C(N)=O)CCC3)nnc1N1CCOCC1` (centres unmarked) [MASM42] the “% of FRET reduction” value was −1.4%. `C=CCn1c(SCC(=O)Nc2sc3c(c2C(N)=O)CCC3)nnc1C1CCCCC1` [MASM30] was tested, and the “% of FRET reduction” value was 17.7%. With `Cc1nnc(SCC(=O)Nc2sc3c(c2C(N)=O)CCC3)n1-c1ccccc1` [MASM26] the “% of FRET reduction” value was 37.0%. With `CC(Sc1nc(C2CC2)nc2c1c(=O)[nH]c(=O)n2C1CC1)C(=O)NCC1CCCCC1` (centres unmarked) [MASM8] the “% of FRET reduction” value was 1.2%. With `Cc1ccc(-c2nnc(SC(C)C(=O)Nc3sc4c(c3C(N)=O)CCC4)n2-c2ccccc2)o1` (centres unmarked) [MASM23] the “% of FRET reduction” value was 13.9%. In the case of `Cc1ccc(NC(=O)CC2SC(CC(c3ccc(C(C)C)cc3)c3c(O)[nH]c(=O)[nH]c3=O)=NC2=O)c(C)c1` (centres unmarked) [MASM17], the “% of FRET reduction” value is reported as −5.9%. With `CC(Sc1nnc(-c2ccco2)n1C1CCCCC1)C(=O)Nc1sc2c(c1C(N)=O)CCC2` (centres unmarked) [MASM39] the “% of FRET reduction” value was 9.9%.

The compounds below were run on WT MEFs (assay: cells). Settings: read-out: EC50 for inducing fusion (Mito AR); WT MEFs, mitochondrial aspect ratio.
Excerpt: Next, it was visually examined if MASM7 could induce mitochondrial fusion in MEFs, using mitochondrial aspect ratio (mitochondrial length/width, reflecting fusion) as a readout. […] (FIG. 5).
`CC[C@H](C)[C@H](NC(=O)CNC(=O)[C@H](CCCNC(=N)N)NC(=O)[C@@H](NC(=O)[C@H](CCC(=O)O)NC(=O)[C@H](C)NC(=O)[C@@H](NC(=O)[C@@H](N)CCC(N)=O)[C@@H](C)CC)C(C)C)C(=O)N[C@@H](CCSC)C(=O)N[C@@H](CC(=O)O)C(=O)N[C@@H](CO)C(=O)N[C@@H](CC(C)C)C(=O)N[C@@H](Cc1c[nH]cn1)C(=O)N[C@@H](CCSC)C(=O)N[C@@H](C)C(=O)N[C@@H](C)C(=O)N[C@@H](CCCNC(=N)N)C(=O)NCC(=O)NCC(=O)N[C@@H](Cc1ccc(O)cc1)C(=O)NCC(=O)N[C@@H](CCCNC(=N)N)C(=O)N[C@@H](CCCCN)C(=O)N[C@@H](CCCCN)C(=O)N[C@@H](CCCNC(=N)N)C(=O)N[C@@H](CCCNC(=N)N)C(=O)N[C@@H](CCC(N)=O)C(=O)N[C@@H](CCCNC(=N)N)C(=O)N[C@@H](CCCNC(=N)N)C(=O)N[C@@H](CCCNC(=N)N)C(=O)O` [367-384 Gly, reference compound] (H-QIAEVRGIMDSLHMAARGGYGRKKRRQRRR-OH) gave an EC50 of 340 nM.
